Assay results taken from ChEMBL document CHEMBL4145686, “Discovery of a Potent and Selective Steroidal Glucocorticoid Receptor Antagonist (ORIC-101)” (J Med Chem, 2018).

Assays:
Glucocorticoid receptor [1] = biological target: T1, Glucocorticoid receptor (Homo sapiens, UniProt P04150); assay: Antagonist activity at GR in human PBMC assessed as reduction in dexamethasone-induced FKBP5 gene expression incubated for 6 hrs by RT-qPCR method; assay type: cell-based
T1 sequence (P04150 whole entry): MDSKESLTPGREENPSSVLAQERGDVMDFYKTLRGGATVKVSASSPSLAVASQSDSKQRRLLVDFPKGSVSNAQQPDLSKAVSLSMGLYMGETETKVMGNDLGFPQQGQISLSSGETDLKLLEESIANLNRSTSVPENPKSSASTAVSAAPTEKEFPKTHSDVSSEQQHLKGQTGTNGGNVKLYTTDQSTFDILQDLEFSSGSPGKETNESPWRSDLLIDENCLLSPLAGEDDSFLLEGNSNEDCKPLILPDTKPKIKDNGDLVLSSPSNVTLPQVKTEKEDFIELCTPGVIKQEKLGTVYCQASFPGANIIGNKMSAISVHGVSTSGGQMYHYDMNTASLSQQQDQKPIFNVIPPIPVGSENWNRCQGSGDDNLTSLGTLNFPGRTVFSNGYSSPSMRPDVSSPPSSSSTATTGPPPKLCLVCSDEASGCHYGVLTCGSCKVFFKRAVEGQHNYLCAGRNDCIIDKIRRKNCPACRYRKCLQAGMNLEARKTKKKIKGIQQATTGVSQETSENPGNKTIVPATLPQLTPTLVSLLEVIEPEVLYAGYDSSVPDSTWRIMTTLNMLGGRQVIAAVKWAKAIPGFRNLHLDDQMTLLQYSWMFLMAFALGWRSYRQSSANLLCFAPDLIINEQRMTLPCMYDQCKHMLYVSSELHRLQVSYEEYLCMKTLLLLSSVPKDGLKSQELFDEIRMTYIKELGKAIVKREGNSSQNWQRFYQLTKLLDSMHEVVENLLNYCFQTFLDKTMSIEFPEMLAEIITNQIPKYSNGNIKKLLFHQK

Glucocorticoid receptor [2] = biological target: T2, Glucocorticoid receptor (Rattus norvegicus, UniProt P06536); assay: Antagonist activity at GR in rat PBMC assessed as reduction in dexamethasone-induced GILZ gene expression incubated for 24 hrs by RT-qPCR method; assay type: cell-based
T2 sequence (P06536 whole entry): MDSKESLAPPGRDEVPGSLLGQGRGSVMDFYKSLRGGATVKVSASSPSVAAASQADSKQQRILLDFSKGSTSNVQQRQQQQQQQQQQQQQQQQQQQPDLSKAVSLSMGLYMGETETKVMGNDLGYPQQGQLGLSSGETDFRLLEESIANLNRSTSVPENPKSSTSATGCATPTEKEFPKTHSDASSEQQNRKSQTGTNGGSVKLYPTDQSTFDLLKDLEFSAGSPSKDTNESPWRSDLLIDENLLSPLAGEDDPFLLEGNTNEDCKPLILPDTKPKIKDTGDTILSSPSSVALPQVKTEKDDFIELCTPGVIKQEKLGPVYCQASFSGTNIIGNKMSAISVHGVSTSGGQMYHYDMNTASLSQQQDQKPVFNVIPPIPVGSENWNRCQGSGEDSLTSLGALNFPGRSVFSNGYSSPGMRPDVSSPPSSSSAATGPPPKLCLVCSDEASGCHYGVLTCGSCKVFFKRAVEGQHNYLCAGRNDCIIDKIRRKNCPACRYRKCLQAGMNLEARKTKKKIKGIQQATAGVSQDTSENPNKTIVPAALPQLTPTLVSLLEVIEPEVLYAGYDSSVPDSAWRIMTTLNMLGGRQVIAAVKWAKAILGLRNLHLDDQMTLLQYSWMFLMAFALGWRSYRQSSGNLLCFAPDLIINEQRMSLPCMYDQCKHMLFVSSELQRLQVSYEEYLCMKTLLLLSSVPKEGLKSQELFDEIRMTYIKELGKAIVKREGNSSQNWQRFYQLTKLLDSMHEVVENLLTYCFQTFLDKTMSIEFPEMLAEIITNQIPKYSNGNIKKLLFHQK

[3] = Half life in mini pig at 0.5 mg/kg, iv; assay type: ADME, organism-based, Sus scrofa; details: in vivo
[4] = Unbound fraction in human plasma; assay type: ADME, cell-free
Progesterone receptor = biological target: T3, Progesterone receptor (Homo sapiens, UniProt P06401); assay: Agonist activity at human PR expressed in CHO-K1 cells incubated for 20 hrs by luciferase reporter gene assay; assay type: cell-based; details: cho-k1, 20 h
T3 sequence (P06401 whole entry): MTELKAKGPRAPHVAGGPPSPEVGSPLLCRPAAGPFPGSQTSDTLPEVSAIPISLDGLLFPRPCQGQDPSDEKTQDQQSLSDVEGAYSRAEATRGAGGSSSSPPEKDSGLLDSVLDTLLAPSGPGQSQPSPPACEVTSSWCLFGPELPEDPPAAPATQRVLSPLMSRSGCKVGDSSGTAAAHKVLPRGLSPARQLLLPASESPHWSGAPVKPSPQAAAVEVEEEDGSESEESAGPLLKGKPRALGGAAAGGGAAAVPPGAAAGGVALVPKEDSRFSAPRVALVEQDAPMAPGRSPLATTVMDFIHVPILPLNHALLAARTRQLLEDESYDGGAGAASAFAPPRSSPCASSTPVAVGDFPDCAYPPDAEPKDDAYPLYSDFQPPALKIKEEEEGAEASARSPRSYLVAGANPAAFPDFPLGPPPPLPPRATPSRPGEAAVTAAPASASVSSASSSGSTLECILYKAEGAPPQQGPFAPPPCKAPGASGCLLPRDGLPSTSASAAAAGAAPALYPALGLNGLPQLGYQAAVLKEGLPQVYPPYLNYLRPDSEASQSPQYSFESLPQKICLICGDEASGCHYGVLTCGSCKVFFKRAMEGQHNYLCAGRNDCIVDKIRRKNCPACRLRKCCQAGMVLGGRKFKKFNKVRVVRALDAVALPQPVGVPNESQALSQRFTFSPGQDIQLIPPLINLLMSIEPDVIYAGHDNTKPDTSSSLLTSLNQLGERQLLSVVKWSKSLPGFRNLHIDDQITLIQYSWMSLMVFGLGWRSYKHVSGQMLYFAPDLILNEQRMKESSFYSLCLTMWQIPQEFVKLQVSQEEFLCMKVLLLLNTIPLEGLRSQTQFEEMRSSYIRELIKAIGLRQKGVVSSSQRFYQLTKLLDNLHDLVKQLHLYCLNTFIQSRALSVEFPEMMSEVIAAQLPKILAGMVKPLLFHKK

`CC(C)N(C)c1ccc([C@H]2C[C@@]3(C)[C@@H](CC[C@@]3(O)C#CC(C)(C)C)[C@@H]3CCC4=CC(=O)CC[C@@H]4[C@H]32)cc1` showed an IC50 (Glucocorticoid receptor [1]) of 19.5 nM, an IC50 (Glucocorticoid receptor [2]) of 59.4 nM and a half-life [3] of 12.2 h. The fraction unbound [4] was 0.14 and the Activity (Progesterone receptor) was “Not Active”.
